The record followed here is patent US7132286B2, “Method for neural stem cell differentiation using valproate” (Psychiatric Genomics, Inc., priority 2001, dated 2006).

Molecules are shown by their SMILES. Entries after “also recorded” stand apart in the source; their conditions may differ.

What all share (format): cell-based
Experiment [1] relates to glutamate decarboxylase (GAD). Description: Western blot of GAD 65/67 expression in rat cortical stem cell cultures. Particulars: 0.5 mM valproate. The protocol: Western blotting. Cells were plated at 1×10^6 cells/100 mm dish in poly-1-ornithine-coated 10 cm dishes and treated as described supra. Denatured proteins were separated on 8% polyacrylamide Tris-Glycine gels (Novex) and transferred to nitrocellulose membranes (BioRad). Membranes were probed with antibodies against rabbit anti-GAD 65/67 (Sigma) at 1:10,000 and HRP-conjugated anti-rabbit (Jackson Immunolabs) at 1:10,000 respective dilutions. Antigen-antibody complexes were visualized using a SuperSignal West Pico Chemiluminescent Kit (Pierce).

Experiment [2] relates to rat cortical stem cells. Description: Astrocyte differentiation of rat cortical stem cells (GFAP immunofluorescence). Conditions: 6 days valproate vs control. The protocol: Drug treatment. For immunofluorescence and Western analysis, cells were treated daily with either 0.5 mM of valproate (Sigma), 10 ng/ml of BDNF (R & D Systems), 20 ng/ml of NT-3 (R & D Systems), 1 nM 9cis retinoic acid (Sigma) or a dilution of NCM for 6 or 7 days. In some experiments valproate was also added with NCM and/or 9cis RA for 7 days. For human stem cell experiments, valproate (0.5 mM) or BDNF (25 ng/ml) was added for 9 days. For neurite outgrowth experiments, cells were treated for 1 day with 0.5 mM valproate or 50 ng/ml of BDNF. Where applicable, medium was changed every 2 days. After about 5–10 days, preferably on day 6 (i.e., after 6 days of drug exposure) the cells were fixed with a 4% solution of para-formaldehyde (PFA) in PBS, prepared as follows: Immunofluorescent staining and visualization. Cells were plated at 20,000 cells/well in poly-L-ornithine/fibronectin (1 mg/ml) coated 24-well plates. […] For immunofluorescence, 3 different black and white pictures were taken by field of interest with a digital camera CoolSnap Fx (Princeton) corresponding to the exposure of Cy2, Cy3 and Hoechst fluorescence. […] The percentage of neurons, astrocytes and GABAergic cells was determined by comparing the number of cells immunopositive for β-tubulin III, GFAP and GABA to the number of bis-benzamide stained nuclei (i.e., total cell number). […]

The test system of experiment [3] is rat cortical stem cells. As to the kind of experiment: Neurite outgrowth of neurons derived from rat cortical stem cells (ArrayScan neurite outgrowth index). Conditions: 1 day; 0.5 mM valproate, 50 ng/ml BDNF; control 35.1+0.3. As to the method: Following plating cells were expanded for about 3–4 days (Passage 1, P1). Cells were treated daily with 10 ng/ml bFGF. The cultures were never permitted to reach more than 70% confluency. Cultures were then passaged as follows: 10 ml of HBSS without Ca^2+ and Mg^2+ was added to each 100 mm dish and the cells incubated at 37° C. for 5–15 minutes, or until sufficient numbers of the stem cells were rounded up. It is not expected that all cells in the culture will round up as there are several cell types in the culture at P0. The pH of the HBSS should be neutral at all times during this incubation. Cells were then removed from the dish by pipetting with a 5 ml pipette, and collected in a 15 or 50 ml conical tube, and centrifuged at 1000 g for 5 minutes. Cells were gently re-suspended in medium, counted, and plated at a density of 1×10^6 cells in 10 cm dishes and expanded for about 2 days in bFGF (Passage 1, P1). […]
For analysis of neurite outgrowth, digital images were taken with an ArrayScan HCS System (Cellomics, Pa.) of 100 cells/well treated with valproate (0.5 mM) and BDNF (50 ng/ml) for 1 day. […] Neurite outgrowth index is defined as the percentage of cells whose neurites total more than 20 μm in length, and is calculated using Cellomics' Neurite Outgrowth application.

On to `CCCC(CCC)C(=O)O` [valproate, 2-Propylpentanoic acid], for which the GAD expression entry in experiment [1] (3 and 6 days) is “GAD expression was increased; also recorded: increases GAD expression after 3 and 6 days”; in experiment [1] (1 day) it was “No expression of GAD was detectable”. In addition, the “expression of GFAP (astrocyte marker)” value in the experiment with rat cortical stem cells [2] was “dramatically inhibited”. Also, in the experiment on rat cortical stem cells [3], the “neurite index (percentage of cells whose neurites total more than 20 μm in length)” value is 49+1.9.
